Consider 5 molecules from publication PMC8765048 (JCI Insight, 2022).

Where two headings read alike, the source gives them in different places.

Broadly, the IC50 is the concentration that gives 50% inhibition. For orientation: IC90 means the point of the concentration-response curve where the effect stands at 90%. Lower therefore signals an effect from little substance.

The subject of one data set is A549 cells. Kind of data set: Phospholipidosis imaging (NBD-PE fluorescence). Particulars: 24 h, sangivamycin up to 5 μM, melperone 10 μM, amiodarone positive control.
In data set [1] the test system is SARS-CoV-2 WA1. Kind of data set: microbe, parasite or virus in culture. The class given is cell-based. Particulars: for IC50: read-out: IC50.
Data set [2] relates to COVID-19 higher risk individuals. On the set-up: method as in earlier work. Conditions: phase III clinical trial with 1433 patients, FDA advisory committee analysis; cited from earlier work.
Data set [3] deals with SARS-CoV-2 B.1.1.7 (Alpha). Kind of data set: microbe, parasite or virus in culture. The format is cell-based. Particulars: Severe acute respiratory syndrome coronavirus 2, Vero C1008, 24 h.
Data set [4] deals with SARS-CoV-2 B.1.351 (Beta). Kind of data set: microbe, parasite or virus in culture. The format is cell-based. Particulars: Severe acute respiratory syndrome coronavirus 2, Vero C1008, 18 h.
The test system of data set [5] is SARS-CoV-2 P.1 (Gamma). Kind of data set: microbe, parasite or virus in culture. The format is cell-based. Particulars: Severe acute respiratory syndrome coronavirus 2, Vero C1008, 24 h.
Data set [6] deals with SARS-CoV-2 B.1.617.2 (Delta). Kind of data set: microbe, parasite or virus in culture. Particulars: Severe acute respiratory syndrome coronavirus 2, VeroE6/TMPRSS2, 18 h. The format is cell-based.
For data set [7], the system named is SARS-CoV-2 P.2 (Zeta). Kind of data set: microbe, parasite or virus in culture. The class given is cell-based. Particulars: Severe acute respiratory syndrome coronavirus 2, Vero C1008, 24 h.
Data set [8] concerns SARS-CoV-2 B.1.427 (Epsilon). Kind of data set: microbe, parasite or virus in culture. Conditions: Severe acute respiratory syndrome coronavirus 2, Vero C1008, 24 h. The class given is cell-based.
Data set [9] concerns SARS-CoV-2 B.1.429 (Epsilon). Kind of data set: microbe, parasite or virus in culture. Conditions: Severe acute respiratory syndrome coronavirus 2, Vero C1008, 48 h. The class given is cell-based.
Data set [10] deals with SARS-CoV-2 WA1. Kind of data set: microbe, parasite or virus in culture. Conditions: Severe acute respiratory syndrome coronavirus 2, Calu-3, 72 h. The format is cell-based.
The test system of data set [11] is SARS-CoV-2 B.1.1.7 (Alpha). Kind of data set: microbe, parasite or virus in culture. The format is cell-based. Particulars: Severe acute respiratory syndrome coronavirus 2, Calu-3, 24 h.
The test system of data set [12] is SARS-CoV-2 B.1.351 (Beta). Kind of data set: microbe, parasite or virus in culture. The format is cell-based. Particulars: Severe acute respiratory syndrome coronavirus 2, Calu-3, 48 h.
The test system of data set [13] is SARS-CoV-2 P.1 (Gamma). Kind of data set: microbe, parasite or virus in culture. Conditions: Severe acute respiratory syndrome coronavirus 2, Calu-3, 24 h. The format is cell-based.
Data set [14] relates to SARS-CoV-2 B.1.617.2 (Delta). Kind of data set: microbe, parasite or virus in culture. Particulars: Severe acute respiratory syndrome coronavirus 2, Calu-3, 24 h. The format is cell-based.
For data set [15], the system named is SARS-CoV-2 P.2 (Zeta). Kind of data set: microbe, parasite or virus in culture. The format is cell-based. Particulars: Severe acute respiratory syndrome coronavirus 2, Calu-3, 24 h.
The test system of data set [16] is SARS-CoV-2 B.1.427 (Epsilon). Kind of data set: microbe, parasite or virus in culture. The format is cell-based. Particulars: Severe acute respiratory syndrome coronavirus 2, Calu-3, 24 h.
Data set [17] deals with SARS-CoV-2 B.1.429 (Epsilon). Kind of data set: microbe, parasite or virus in culture. The class given is cell-based. Particulars: Severe acute respiratory syndrome coronavirus 2, Calu-3, 24 h.
Data set [18] relates to SARS-CoV-2 WA1. Kind of data set: microbe, parasite or virus in culture. The format is cell-based. Conditions: Severe acute respiratory syndrome coronavirus 2, Caco-2, 96 h.
In data set [19] the test system is SARS-CoV-2. Kind of data set: Combinatorial sangivamycin/remdesivir efficacy testing, Vero E6 cells. Particulars: Severe acute respiratory syndrome coronavirus 2, Vero C1008; read-out: IC50 (nM), S:R by [Remdesivir]. The format is cell-based.
The subject of data set [20] is SARS-CoV-2. Kind of data set: Combinatorial sangivamycin/remdesivir efficacy testing, Caco-2 cells. The format is cell-based. Particulars: Severe acute respiratory syndrome coronavirus 2, Caco-2; read-out: IC50 (nM), S:R by [Remdesivir].
Data set [21] concerns SARS-CoV-2. Kind of data set: Combinatorial sangivamycin/remdesivir efficacy testing, Calu-3 cells. The class given is cell-based. Particulars: Severe acute respiratory syndrome coronavirus 2, Calu-3; read-out: IC50 (nM), S:R by [Remdesivir].
For data set [22] the following is noted: laboratory mouse liver, lung, and kidney microsomes; cited from earlier work.
For data set [23] the following is noted: mice; cited from earlier work.
The nature of data set [24]: 24-hour plasma pharmacokinetics in CD-1 laboratory mice. The class given is in vivo, mouse. Particulars: CD-1 mice, sangivamycin i.p. 60 mg/kg; not in control mice. The method, then: We next evaluated the 24-hour pharmacokinetics (PK) of sangivamycin in CD-1 laboratory mouse plasma. Sangivamycin’s plasma concentrations increased following i.p. injection of 60 mg/kg to a peak at 2 hours, then decreased over 6 or 8 hours, and remained virtually unchanged up to 24 hours after dosing. […] Graphing plasma concentration versus time produced an area under the curve to the last time point with values of 632 ± 66.6 h•ng/mL for males and 833 ± 53.9 h•ng/mL for females. […] Our data corroborate historical PK studies in mice with ^3H-labeled sangivamycin performed at the NCI in 1974 ([20]). In these studies, free nucleoside and mono-, di-, and triphosphate forms of sangivamycin were detected in blood, urine, and multiple tissues (e.g., heart, liver, brain, spleen, and kidneys) following i.p. injection of 8 mg/kg. The studies established that sangivamycin was phosphorylated after transportation into cells. In liver, heart, and brain, the predominant form of sangivamycin was sangivamycin 5′-monophosphate (SMP). […] Therefore, we determined the level of SMP in blood in our PK study using a published liquid chromatography–tandem mass spectrometry (LC-MS/MS) method with a lower limit of quantification of 1 ng/mL ([33]). Using this method, we detected SMP in the plasma of dosed mice but not control mice (Supplemental Figure 9B). The apparent levels of SMP increased in blood during the 24 hours of this study. There also was possible presence of a diphosphate metabolite of sangivamycin, but it was detected only in the plasma samples taken 24 hours after dosing.

[25] abbreviates: Severe acute respiratory syndrome coronavirus 2, Vero C1008, 48 h.

Regarding `CCCCc1oc2ccccc2c1C(=O)c1cc(I)c(OCCN(CC)CC)c(I)c1` [Amiodarone, reference compound], the “NBD-PE fluorescence (phospholipidosis)” value in the data set with A549 cells is “induced NBD-PE fluorescence”.
With `N#C[C@@]1(c2ccc3c(N)ncnn23)O[C@H](CO)[C@@H](O)[C@H]1O` [GS-441524, reference compound], in the data set with SARS-CoV-2 WA1 [1], the “IC50 fold higher than the IC50 of sangivamycin” value amounted to 27 fold. The IC50 in the data set on SARS-CoV-2 WA1 [1] (Severe acute respiratory syndrome coronavirus 2, Vero C1008) turned out to be 1420 ± 20 nM.
Consider `CC(C)C(=O)OC[C@H]1O[C@@H](n2ccc(NO)nc2=O)[C@H](O)[C@@H]1O` [Molnupiravir], for which the “reduction of risk for hospitalization and death” value in data set [2] is reported as 30%.
Consider `CCC(CC)COC(=O)[C@H](C)N[P@](=O)(OC[C@H]1O[C@@](C#N)(c2ccc3c(N)ncnn23)[C@H](O)[C@@H]1O)Oc1ccccc1` [Remdesivir, remdesivir, reference compound], for which the IC90 in the data set with SARS-CoV-2 WA1 [1] (setting [25]) was 3530 nM; in data set [3], 3680 nM; in data set [4], 4030 nM; in the data set on SARS-CoV-2 P.1 (Gamma) [5], 3680 nM; in data set [6] it was above 10000 nM; in the data set with SARS-CoV-2 P.2 (Zeta) [7], 4910 nM. Besides, the 90% effect concentration (IC90) in [8] is 3280 nM; in data set [9], 2470 nM; with SARS-CoV-2 WA1 [10], 8190 nM; in data set [11] it was above 10000 nM; in data set [12], 2290 nM; in the data set on SARS-CoV-2 P.1 (Gamma) [13] it was 6270 nM. The IC90 in data set [14] is above 10000 nM; with SARS-CoV-2 P.2 (Zeta) [15], 4800 nM; in data set [16] it was 6090 nM; in [17], above 10000 nM; in the data set with SARS-CoV-2 WA1 [18], 13 nM. The concentration for half-maximal inhibition (IC50) with SARS-CoV-2 WA1 [1] (setting [25]) is 2270 nM; in data set [3], 1420 nM; in [4], 2370 nM; in the data set on SARS-CoV-2 P.1 (Gamma) [5], 702 nM; in [6], 5460 nM; with SARS-CoV-2 P.2 (Zeta) [7] it was 1560 nM. Also, the half-inhibitory concentration (IC50) in data set [8] turned out to be 1270 nM; in data set [9], 1770 nM; in the data set on SARS-CoV-2 WA1 [10] it was 4490 nM; in data set [11] it was 3180 nM; in data set [12] it was 951 nM; with SARS-CoV-2 P.1 (Gamma) [13] it was 1700 nM. Moreover, the IC50 in data set [14] was found to be 2910 nM; in the data set on SARS-CoV-2 P.2 (Zeta) [15] it was 791 nM; in [16], 1500 nM; in data set [17], 2800 nM; in the data set with SARS-CoV-2 WA1 [18], 3 nM; in the data set with SARS-CoV-2 [19] it was 2320 nM. The results for the IC50 in the data set with SARS-CoV-2 [20] and in the data set with SARS-CoV-2 [21] were 17.6 nM and 4470 nM, respectively. In addition, in data set [22], the “time within which remdesivir and its monophosphate are lost” value is at most 10 min. The “half-lives (free nucleoside and monophosphate forms)” value in data set [23] is “about 5 hours”.
Consider `NC(=O)c1cn(C2OC(COP(=O)(O)O)C(O)C2O)c2ncnc(N)c12` (centres unmarked) [SMP, sangivamycin 5′-monophosphate], for which, in [24], the “presence in plasma of sangivamycin-dosed mice (LC-MS/MS)” value is “detected”.
